For assay [1], the target named is TrkA (histidine-tagged recombinant human TrkA, cytoplasmic domain) (Homo sapiens (Human), UniProt P04629). Description: TrkA ELISA assay. The assay is classed as biochemical. As to conditions: Table 1, 500 μM ATP, read-out: TrkA Enzyme IC50. Here is the method: An enzyme-linked immunosorbant assay (ELISA) was used to assess TrkA kinase activity in the presence of inhibitors. Immulon 4HBX 384-well microtiter plates (Thermo part #8755) were coated with a 0.025 mg/mL solution of poly (Glu, Ala, Tyr; 6:3:1; Sigma P3899). […] The assay buffer consisted of 25 mM MOPS pH 7.5, 0.005% (v/v) Triton X-100 and 5 mM MgCl2. The reaction mixture was removed from the plate by washing with PBS containing 0.1% (v/v) Tween 20. The phosphorylated reaction product was detected using 0.2 μg/mL of a phosphotyrosine specific monoclonal antibody (clone PY20) conjugated to horseradish peroxidase in conjunction with the TMB Peroxidase Substrate System (KPL). After the addition of 1M phosphoric acid, the chromogenic substrate color intensity was quantitated via absorbance at 450 nm.
Sequence of TrkA (histidine-tagged recombinant human TrkA, cytoplasmic domain) (P04629 440-796): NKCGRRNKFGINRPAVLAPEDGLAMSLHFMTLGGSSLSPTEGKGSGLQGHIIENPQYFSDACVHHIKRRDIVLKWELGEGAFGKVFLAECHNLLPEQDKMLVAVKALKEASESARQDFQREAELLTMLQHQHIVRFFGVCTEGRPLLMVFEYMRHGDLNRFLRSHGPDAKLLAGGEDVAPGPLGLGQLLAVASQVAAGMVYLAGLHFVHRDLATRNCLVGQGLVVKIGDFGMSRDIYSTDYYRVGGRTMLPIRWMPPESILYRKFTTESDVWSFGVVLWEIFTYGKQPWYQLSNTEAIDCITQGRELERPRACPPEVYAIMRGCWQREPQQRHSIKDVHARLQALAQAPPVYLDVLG

Assay [2] concerns the target Jak2 (human Jak2 kinase domain, amino acids 808-1132) (Homo sapiens (Human), UniProt O60674). Description: Jak2 inhibition assay (Omnia kinase assay). The assay is classed as biochemical.

Data on one molecule can be found in patent publication US10251889B2, “Substituted pyrazolo[1,5-a]pyrimidine compounds as Trk kinase inhibitors” (Array BioPharma, Inc., priority 2009, dated 2019).

Sequence of Jak2 (human Jak2 kinase domain, amino acids 808-1132) (O60674 808-1132): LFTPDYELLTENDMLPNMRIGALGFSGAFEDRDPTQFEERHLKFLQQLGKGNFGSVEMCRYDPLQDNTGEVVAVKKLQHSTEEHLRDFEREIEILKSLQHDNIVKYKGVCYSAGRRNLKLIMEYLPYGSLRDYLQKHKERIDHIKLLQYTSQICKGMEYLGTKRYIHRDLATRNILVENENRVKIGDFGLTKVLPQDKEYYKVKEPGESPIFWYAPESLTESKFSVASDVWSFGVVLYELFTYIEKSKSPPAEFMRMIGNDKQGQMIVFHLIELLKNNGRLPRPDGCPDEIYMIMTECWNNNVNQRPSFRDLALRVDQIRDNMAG

Usually IC50 stands for the midpoint of a concentration-inhibition curve. The inhibition is the share of the control response that was lost under treatment. As for `C[C@@H](NC(=O)c1cnn2ccc(N3CCC[C@@H]3c3cncc(F)c3)nc12)C(F)(F)F` [Example 129, 5-((R)-2-(5-fluoropyridin-3-yl)pyrrolidin-1-yl)-N-((R)-1,1,1-trifluoropropan-2-yl)pyrazolo[1,5-a]pyrimidine-3-carboxamide], the IC50 in assay [1] was 8 nM; in assay [2] (Table 1, 500 μM ATP, >1000 nM when >50% inhibition not observed at 1000 nM, read-out: Jak2 Enzyme IC50), more than 1000 nM. The inhibition at 1 µM in assay [2] (read-out: Jak2 Enzyme (% inhibition at 1000 nM), Table 1, 1000 nM test compound) amounted to 25.2%.
